Reference: PubChem BioAssay AID1963431 (Molecular Pharmacology Branch, DTP, NCI, 2024)

Tested on: Rh18 complex spheroid viability, percent test/control
Test: Anticancer human tumor Rh18 cell line growth inhibition [Asc];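 note: spheroids exposed to compound for 7 days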;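 for viability, T/C: 100% = DMSO vehicle control wells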
Details: for IC50: curve of first compound; for viability, T/C: stronger effect = lower value
In short: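 Tumor cells were grown as multicellular spheroids with stromal HUVEC and mesenchymal stem cells and treated singly or in combination. Concentrations fell in half-log steps from the clinical Cmax, or from 10 microM where none was known.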

[1] = second compound 0.01 µM, first compound 0.0316 µM
[2] = second compound 0.01 µM, first compound 0.1 µM
[3] = second compound 0.01 µM, first compound 0.316 µM
[4] = second compound 0.01 µM, first compound 1 µM
[5] = second compound 0.01 µM, first compound 3.16 µM
[6] = second compound 0.01 µM, first compound 10 µM
[7] = second compound 0.0316 µM, first compound 0.0316 µM
[8] = second compound 0.0316 µM, first compound 0.1 µM
[9] = second compound 0.0316 µM, first compound 0.316 µM
[10] = second compound 0.0316 µM, first compound 1 µM
[11] = second compound 0.0316 µM, first compound 3.16 µM
[12] = second compound 0.0316 µM, first compound 10 µM
[13] = second compound 0.1 µM, first compound 0.0316 µM
[14] = second compound 0.1 µM, first compound 0.1 µM
[15] = second compound 0.1 µM, first compound 0.316 µM
[16] = second compound 0.1 µM, first compound 1 µM
[17] = second compound 0.1 µM, first compound 3.16 µM
[18] = second compound 0.1 µM, first compound 10 µM
[19] = second compound 0.316 µM, first compound 0.0316 µM
[20] = second compound 0.316 µM, first compound 0.1 µM
[21] = second compound 0.316 µM, first compound 0.316 µM
[22] = second compound 0.316 µM, first compound 1 µM
[23] = second compound 0.316 µM, first compound 3.16 µM
[24] = second compound 0.316 µM, first compound 10 µM
[25] = second compound 1 µM, first compound 0.0316 µM
[26] = second compound 1 µM, first compound 0.1 µM
[27] = second compound 1 µM, first compound 0.316 µM
[28] = second compound 1 µM, first compound 1 µM
[29] = second compound 1 µM, first compound 3.16 µM
[30] = second compound 1 µM, first compound 10 µM

C#Cc1c(F)ccc2cc(O)cc(-c3ncc4c(N5CC6CCC(C5)N6)nc(OCC56CCCN5CC(F)C6)nc4c3F)c12 (configuration not stated) + CNC(C)C(=O)NC1CN(S(=O)(=O)c2cccc(S(=O)(=O)N3CCC4CCC(C(=O)NC(c5ccccc5)c5ccccc5)N4C(=O)C(NC(=O)C(C)NC)C3)c2)CCC2CCC(C(=O)NC(c3ccccc3)c3ccccc3)N2C1=O
IC50 (second compound 0.00316 µM): 5.08 µM | IC50 (second compound 0.01 µM): 4.31 µM | IC50 (second compound 0.0316 µM): 3.64 µM | IC50 (second compound 0.1 µM): < 0.0316 µM | IC50 (second compound 0.316 µM): 1.79 µM | IC50 (second compound 1 µM): 3.38 µM | viability, T/C (second compound 0.00316 µM, first compound 0.0316 µM): 67.1% | viability, T/C (second compound 0.00316 µM, first compound 0.1 µM): 60.7% | viability, T/C (second compound 0.00316 µM, first compound 0.316 µM): 64.5% | viability, T/C (second compound 0.00316 µM, first compound 1 µM): 65% | viability, T/C (second compound 0.00316 µM, first compound 3.16 µM): 70.7% | viability, T/C (second compound 0.00316 µM, first compound 10 µM): 27.7% | viability, T/C [1]: 57.4% | viability, T/C [2]: 60.7% | viability, T/C [3]: 50.2% | viability, T/C [4]: 74.8% | viability, T/C [5]: 63.9% | viability, T/C [6]: 18.9% | viability, T/C [7]: 63.2% | viability, T/C [8]: 40.7% | viability, T/C [9]: 52.2% | viability, T/C [10]: 55.3% | viability, T/C [11]: 61.5% | viability, T/C [12]: 17.6% | viability, T/C [13]: 40.1% | viability, T/C [14]: 52.3% | viability, T/C [15]: 40.3% | viability, T/C [16]: 61.9% | viability, T/C [17]: 50.9% | viability, T/C [18]: 14.1% | viability, T/C [19]: 74.4% | viability, T/C [20]: 69% | viability, T/C [21]: 58.9% | viability, T/C [22]: 47.2% | viability, T/C [23]: 54.4% | viability, T/C [24]: 11.8% | viability, T/C [25]: 78.2% | viability, T/C [26]: 50.2% | viability, T/C [27]: 45% | viability, T/C [28]: 51.6% | viability, T/C [29]: 53.3% | viability, T/C [30]: 10.5%

C=CC(=O)N1CCN(c2nc(=O)n(-c3c(C)ccnc3C(C)C)c3nc(-c4c(O)cccc4F)c(F)cc23)C(C)C1 (configuration not stated) + CNC(C)C(=O)NC1CN(S(=O)(=O)c2cccc(S(=O)(=O)N3CCC4CCC(C(=O)NC(c5ccccc5)c5ccccc5)N4C(=O)C(NC(=O)C(C)NC)C3)c2)CCC2CCC(C(=O)NC(c3ccccc3)c3ccccc3)N2C1=O
IC50 (second compound 0.01 µM): > 10 µM | IC50 (second compound 0.0316 µM): 4.45 µM | IC50 (second compound 0.1 µM): 0.061 µM | IC50 (second compound 0.316 µM): < 0.0316 µM | IC50 (second compound 1 µM): < 0.0316 µM | viability, T/C [1]: 61.6% | viability, T/C [2]: 63.6% | viability, T/C [3]: 56% | viability, T/C [4]: 51.8% | viability, T/C [5]: 59.8% | viability, T/C [6]: 61.1% | viability, T/C [7]: 52.4% | viability, T/C [8]: 54.8% | viability, T/C [9]: 61.9% | viability, T/C [10]: 46.2% | viability, T/C [11]: 60.7% | viability, T/C [12]: 37.8% | viability, T/C [13]: 49.4% | viability, T/C [14]: 52% | viability, T/C [15]: 48.6% | viability, T/C [16]: 43.1% | viability, T/C [17]: 46.4% | viability, T/C [18]: 43.6% | viability, T/C [19]: 43.1% | viability, T/C [20]: 41.3% | viability, T/C [21]: 41.2% | viability, T/C [22]: 43.9% | viability, T/C [23]: 52.5% | viability, T/C [24]: 45.4% | viability, T/C [25]: 44.1% | viability, T/C [26]: 45% | viability, T/C [27]: 46.4% | viability, T/C [28]: 40% | viability, T/C [29]: 35.4% | viability, T/C [30]: 35.9%
